Publication PMC11091072, “Targeting bacterial nickel transport with aspergillomarasmine A suppresses virulence-associated Ni-dependent enzymes” (Nature Communications, 2024)
Where “and” joins values, the source holds several entries; their conditions need not be identical. Equal values may be shown once. Read-outs that look alike come from different tables or passages of the source.

Tests used:
[1] = test system: NikA; type: binding, Klebsiella pneumoniae; conditions: 100 μM
[2] = test system: K. pneumoniae urease activity (whole cell); assay: microbe, parasite or virus in culture; type: cell-based, Klebsiella pneumoniae ATCC 33495; conditions: artificial urine, 24 h; for K. pneumoniae urease-dependent pH change (pH): 37 °C
[3] = test system: S. aureus urease activity (whole cell); type: cell-based, Staphylococcus aureus; conditions: S. aureus, artificial urine, 24 h
[4] = test system: K. pneumoniae; type: cell-based, Klebsiella pneumoniae; conditions: for Growth curve (culture density): 50 μM
[5] = test system: K. pneumoniae urease activity (whole cell); assay: Checkerboard analysis of Zn-AMA and AHA on urease activity; type: cell-based, Klebsiella pneumoniae; conditions: Zn-AMA 0 μM
Procedure: To guide our exploration of the mode of action of Zn-AMA, we investigated whether a chemical-chemical interaction occurs with the urease inhibitor AHA. […] We subsequently performed inductively coupled plasma mass spectrometry (ICP-MS) analyses to evaluate the intracellular Ni^2+ and Zn^2+ content of K. pneumoniae.
K. pneumoniae whole-cell urease activity was determined with artificial urine containing 0.2% (w/v) casamino acids and 0.01% (w/v) phenol red in 96-well plates. For the growth of S. aureus in artificial urine, the medium was supplemented with 10% LB. After 20–24 hours of growth, bacteria were removed using 0.45 μm filter plates, and the final A550 of the medium was measured using a plate reader.
FIG S7 Evaluation of Zn-AMA as a direct inhibitor of urease. A) Checkerboard analysis of Zn-AMA and AHA on urease activity of K.
pneumoniae after growth for 24 h at 37 °C artificial urine. pH is represented by the color scale determined with phenol red. […]

## [Cl-].[Cl-].[Co+2] [Co^2+, CoCl2]
[1]
  effect on stability of recombinant NikA: did not affect it

## [Cl-].[Cl-].[Zn+2] [ZnCl2, reference compound]
[2]; 0.39 μM
  K. pneumoniae urease-dependent pH change (pH): 8.18 and 8.29
[2]; 0.78 μM
  K. pneumoniae urease-dependent pH change (pH): 8.27 and 8.39
[2]; 1.56 μM
  K. pneumoniae urease-dependent pH change (pH): 8.17 and 8.34
[2]; 3.12 μM
  K. pneumoniae urease-dependent pH change (pH): 8.20 and 8.42
[2]; 6.25 μM
  K. pneumoniae urease-dependent pH change (pH): 8.19 and 8.30
[2]; 12.5 μM
  K. pneumoniae urease-dependent pH change (pH): 8.23 and 8.21
[2]; 25 μM
  K. pneumoniae urease-dependent pH change (pH): 8.25 and 8.11
[2]; 50 μM
  K. pneumoniae urease-dependent pH change (pH): 8.14 and 8.06
[2]; 100 μM
  K. pneumoniae urease-dependent pH change (pH): 8.06 and 8.01
[2]; 200 μM
  K. pneumoniae urease-dependent pH change (pH): 7.51 and 7.49
[2]; K. pneumoniae
  effect on urease activity: did not affect urease activity
[3]
  effect on urease activity: did not affect urease activity
[1]
  effect on stability of recombinant NikA: stabilized NikA

## CC(=NO)C(C)=NO [DMG, dimethylglyoxime, reference compound]
[4]; 15.15 h
  Growth curve (culture density): 0.125 and 0.12
[4]; 16.15 h
  Growth curve (culture density): 0.131 and 0.126
[4]; 17.15 h
  Growth curve (culture density): 0.14 and 0.136
[4]; Chelex-treated nitrogen-limited medium
  growth with urea as sole nitrogen source: did not

## CC(=O)NO [AHA, acetohydroxamic acid, reference compound]
[2]; K. pneumoniae
  concentration required to achieve similar urease suppression: 12.8 mM
[5]; AHA 0.1 mM
  Urease-dependent pH change (pH): 7.94
[5]; AHA 0.2 mM
  Urease-dependent pH change (pH): 8.07
[5]; AHA 0.4 mM
  Urease-dependent pH change (pH): 7.88
[5]; AHA 0.5 mM
  Urease-dependent pH change (pH): 8.25
[5]; AHA 0.8 mM
  Urease-dependent pH change (pH): 7.28
[5]; AHA 1.6 mM
  Urease-dependent pH change (pH): 6.77

## [Cl][Ni][Cl] [Ni^2+, NiCl2]
[1]
  effect on stability of recombinant NikA: did not affect it
